Test results reported in patent US20230220010A1, “BROAD-SPECTRUM ANTIVIRAL PEPTIDES” (priority 2020, published 2023).
Ends that are not written are not given here.

What was measured:
[1] = test system: Lassa pseudovirus (LASVpv); conditions: 1 h
HEK cells [2] = experiment: Cytotoxicity with varying serum (FBS) concentrations, HEK cells; conditions: 0-50% FBS
Vero E6 cells = experiment: Cytotoxicity assay, CELLTITER-GLO, Vero E6 cells; conditions: peptide concentrations at or below 2 μM, about 72 hours
human adenovirus 5 = conditions: read-out: EC50 against adenovirus (AdV); plaque assay
[3] = test system: herpes simplex virus type 1; conditions: read-out: EC50 against herpes simplex virus (HSV); plaque assay
HEK cells [4] = experiment: Cytotoxicity with varying cell densities, HEK cells; conditions: 5×10^3 to 1×10^5 cells/well
dengue virus type 2 = conditions: read-out: EC50 against dengue virus (DENV); plaque assay

Substance: RRGWLLLRLLRLLLRLLWGRR-NH2 [AHR]
- EC50 [1]: < 10 µM
- inhibition of LASVpv at 50 μM peptide ([1]; 50 μM): approximately 100%
- effect of serum concentration on cytotoxicity (HEK cells [2]): cytotoxic in all serum concentrations at high peptide concentrations
- cell viability, Vero E6 cells (Vero E6 cells): High cell viability
- EC50 (human adenovirus 5): 1.1 µM
- EC50 [3]: 0.157 µM
- effect of cell density on cytotoxicity (HEK cells [4]): increases as cell density increases
- EC50 (dengue virus type 2): 0.31 µM
